Marks after values point to notes of the source that are not given here.
Assay: Clinical trial safety, integrated analysis of ALKA, STARTRK-1, STARTRK-2, STARTRK-NG (N=504)
From the text: The following categories of frequency have been used: very common ≥1/10, common (≥1/100 to <1/10), uncommon (≥1/1,000 to <1/100), rare (≥1/10,000 to <1/1000), very rare (<1/10,000).

[1] = patients less than 65 years old

## CN1CCN(c2ccc(C(=O)Nc3n[nH]c4ccc(Cc5cc(F)cc(F)c5)cc34)c(NC3CCOCC3)c2)CC1 [Entrectinib, N-[5-(3,5-difluorobenzyl)-1H-indazol-3-yl]-4-(4-methyl-piperazin-1-yl)-2-(tetrahydro-pyran-4-ylamino)-benzamide]
N = 504
  Myalgia, Frequency Category (All Grades): very common (very common ≥1/10)
  Myalgia, Grade ≥3: 0.6%
  Nausea, All Grades: 32.1%
  Nausea, Frequency Category (All Grades): very common (very common ≥1/10)
  Nausea, Grade ≥3: 0.8%
  Neutropenia, All Grades: 11.3%
  Neutropenia, Frequency Category (All Grades): very common (very common ≥1/10)
  Neutropenia, Grade ≥3: 4.4%
  Pain, All Grades: 24.4%
  Pain, Frequency Category (All Grades): very common (very common ≥1/10)
  Pain, Grade ≥3: 1.6%
  Peripheral Sensory Neuropathy, Frequency Category (All Grades): very common (very common ≥1/10)
  Peripheral sensory neuropathy, All Grades: 15.7%
  Peripheral sensory neuropathy, Grade ≥3: 1.0%
  Pyrexia, All Grades: 20.0%
  Pyrexia, Frequency Category (All Grades): very common (very common ≥1/10)
  Pyrexia, Grade ≥3: 0.8%
  Rash, All Grades: 11.5%
  Rash, Frequency Category (All Grades): very common (very common ≥1/10)
  Rash, Grade ≥3: 1.4%
  Sleep disturbances, All Grades: 13.5%
  Sleep disturbances, Frequency Category (All Grades): very common (very common ≥1/10)
  Sleep disturbances, Grade ≥3: 0.4%
  Syncope, All Grades: 4.6%
  Syncope, Frequency Category (All Grades): common (common (≥1/100 to <1/10))
  Syncope, Grade ≥3: 3.0%
  Tumor lysis syndrome, All Grades: 0.2%
  Tumor lysis syndrome, Frequency Category (All Grades): uncommon (uncommon (≥1/1,000 to <1/100))
  Urinary tract infection, All Grades: 12.7%
  Urinary tract infection, Frequency Category (All Grades): very common (very common ≥1/10)
  Urinary tract infection, Grade ≥3: 2.6%
  Vision Blurred, Frequency Category (All Grades): very common (very common ≥1/10)
  Vision Blurred, Grade ≥3: 0.4%
  Vomiting, All Grades: 23.2%
  Vomiting, Frequency Category (All Grades): very common (very common ≥1/10)
  Vomiting, Grade ≥3: 1.2%
  Weight increased, All Grades: 26.4%
  Weight increased, Frequency Category (All Grades): very common (very common ≥1/10)
  Weight increased, Grade ≥3: 7.3%
N = 504, ataxia, balance disorder, gait disturbances
  Ataxia, All Grades: 15.7%
N = 504, diplopia, vision blurred, visual impairment
  Vision Blurred, All Grades: 11.9%
Adult patients
  Entrectinib interrupted due to fractures: 36.0%
  Grade 3 or 4 bone fractures: 1.9%
  Grade 3 or 4 headache: 0.6%
  Grade 3 or 4 neutropenia: 3.4%
  Grade 3 or 4 weight increased: 6.9%
Adult patients (N=475)
  Fractures: 5.3%
adults, range: 0.26 months to 18.5 months
  Median time to fracture: 3.42 months
Elderly (65 years or older)
  Ataxia: 23.8%
  Blood creatinine increased: 31.5%
  Dizziness: 48.5%
  Hypotension: 21.5%
human, in vivo
  Bilateral femoral neck fractures: 2 pediatric patients
  Cognitive disorders, Grade 3 events: 4.4%
  Cognitive symptoms: amnesia: 2.8%
  Cognitive symptoms: cognitive disorders: 6.3%
  Cognitive symptoms: confusional state: 7.3%
  Cognitive symptoms: delirium: 0.8%
  Cognitive symptoms: disturbance in attention: 3.8%
  Cognitive symptoms: hallucination: 1.0%
  Cognitive symptoms: hallucination visual: 0.4%
  Cognitive symptoms: memory impairment: 4.2%
  Cognitive symptoms: mental disorder: 0.2%
  Cognitive symptoms: mental status changes: 1.2%
  Discontinuation due to fractures: No patients discontinued
  Eye disorders: diplopia: 2.6%
  Eye disorders: vision blurred: 8.5%
  Eye disorders: visual impairment: 1.6%
  Overall safety profile in elderly patients vs patients younger than 65 years: similar
  Patients recovered from ataxia: 67.1%
  Patients recovered from peripheral neuropathy: 55.7%
  Patients recovered from the eye disorder events: 61.7%
human, in vivo, 5.5 months
  Dyspnea, Grade ≥3: 5.8* %
  Lung infection, Grade ≥3: 6.0* %
  Tumor lysis syndrome, Grade ≥3: 0.2* %
[1]
  Ataxia: 12.8%
  Blood creatinine increased: 23.3%
  Dizziness: 36.6%
  Hypotension: 14.7%
Patients with at least one post-baseline ECG assessment, 12 patients
  QTcF interval of ≥500 ms: 2.8%
Patients with at least one post-baseline ECG assessment, 17 patients
  QTcF interval prolongation of >60 ms after starting entrectinib: 4.0%
Patients with brain metastases at baseline
  Cognitive disorder events: 29.7%
Patients without brain metastases
  Cognitive disorder events: 23.1%
Pediatric patients
  Entrectinib interrupted due to fractures: 33.3%
  Grade 3 or 4 bone fractures: 12.5%
  Grade 3 or 4 headache: 6.3%
  Grade 3 or 4 neutropenia: 28.1%
  Grade 3 or 4 weight increased: 21.9%
Pediatric patients (N=29)
  Fractures: 20.7%
Pediatric patients, range: 1.77 months to 7.39 months
  Median time to fracture: 3.38 months
Pediatric population (1/29)
  Disturbance in attention of Grade 1 severity: 3.4%
Range 0.03 months to 14.49 months
  Eye disorders, median duration: 1.02 months
Range 0.03 months to 20.93 months
  Peripheral sensory neuropathy, median time to onset: 0.49 months
range: 0.03 months to 11.99 months
  Ataxia, median duration: 0.66 months
range: 0.03 months to 21.59 months
  Eye disorders, median time to onset: 1.87 months
range: 0.03 months to 28.19 months
  Ataxia, median time to onset: 0.36 months
range: 0.07 months to 6.01 months
  Peripheral sensory neuropathy, median duration: 0.76 months

— patent US20220257592A1, “METHODS OF TREATING CANCER” (HOFFMANN-LA ROCHE INC., priority 2019, published 2022)
